Source: PubChem BioAssay AID248 (DTP/NCI, 2004)
Where “and” joins values, the source holds several entries; their conditions need not be identical. Equal values may be shown once. Inconclusive results and toxic doses are left out. Cut-off read from the data, not from the text of the source: active = T/C of 150% or more; inactive = T/C below 125%.

System: L1210 leukemia ip in BDF1 mice, survival T/C
Assay: NCI In Vivo Anticancer Drug Screen. Data for tumor model L1210 Leukemia (intraperitoneal) in B6D2F1 (BDF1) mice
Settings: endpoint: mean survival time, higher = longer survival
Outline: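 Ratio derived from survival: compound-dosed mice over vehicle-dosed mice, all bearing a transplantable tumor.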

[1] = dose: 100.0 mg/kg/injection, schedule: Q01DX009 (ip), vehicle: saline
[2] = dose: 100.0 mg/kg/injection, schedule: Q04DX002 (ip), vehicle: saline
[3] = dose: 200.0 mg/kg/injection, schedule: Q01DX009 (ip), vehicle: saline
[4] = dose: 200.0 mg/kg/injection, schedule: Q04DX002 (ip), vehicle: saline
[5] = dose: 400.0 mg/kg/injection, schedule: Q01DX009 (ip), vehicle: saline
[6] = dose: 400.0 mg/kg/injection, schedule: Q04DX002 (ip), vehicle: saline
[7] = dose: 50.0 mg/kg/injection, schedule: Q01DX009 (ip), vehicle: saline
[8] = dose: 100.0 mg/kg/injection, schedule: Q04DX003 (ip), vehicle: Klucel (hydroxypropylcellulose) (HPC)
[9] = dose: 200.0 mg/kg/injection, schedule: Q04DX003 (ip), vehicle: Klucel (hydroxypropylcellulose) (HPC)
[10] = dose: 400.0 mg/kg/injection, schedule: Q01DX001 (ip), vehicle: Klucel (hydroxypropylcellulose) (HPC)
[11] = dose: 100.0 mg/kg/injection, schedule: Q04DX003 (ip), vehicle: saline
[12] = dose: 200.0 mg/kg/injection, schedule: Q04DX003 (ip), vehicle: saline
[13] = dose: 400.0 mg/kg/injection, schedule: Q04DX003 (ip), vehicle: saline
[14] = dose: 100.0 mg/kg/injection, schedule: Q04DX003 (ip), vehicle: saline with Tween-80
[15] = dose: 200.0 mg/kg/injection, schedule: Q04DX003 (ip), vehicle: saline with Tween-80
[16] = dose: 100.0 mg/kg/injection, schedule: Q01DX009 (ip), vehicle: saline with Tween-80
[17] = dose: 400.0 mg/kg/injection, schedule: Q04DX003 (ip), vehicle: saline with Tween-80
[18] = dose: 100.0 mg/kg/injection, schedule: Q01DX001 (ip), vehicle: saline with Tween-80
[19] = dose: 100.0 mg/kg/injection, schedule: Q04DX002 (ip), vehicle: saline with Tween-80
[20] = dose: 200.0 mg/kg/injection, schedule: Q01DX001 (ip), vehicle: saline with Tween-80
[21] = dose: 200.0 mg/kg/injection, schedule: Q04DX002 (ip), vehicle: saline with Tween-80
[22] = dose: 400.0 mg/kg/injection, schedule: Q01DX001 (ip), vehicle: saline with Tween-80
[23] = dose: 400.0 mg/kg/injection, schedule: Q04DX002 (ip), vehicle: saline with Tween-80

Measured: T/C

O=C1C2C(Cl)C(Cl)C(Cl)C(Cl)C2C(=O)N1NC1CCC([N+](=O)[O-])CC1[N+](=O)[O-] (centres undefined)
inactive: [1] 91 % of control | [2] 92 % of control | [3] 94 % of control | [4] 106 % of control | [5] 98 % of control | [6] 95 % of control

CCCCCS(=O)(=O)N1CCCCC1
inactive: dose: 100.0 mg/kg/injection, schedule: Q04DX002 (ip), vehicle: other 103 % of control | dose: 200.0 mg/kg/injection, schedule: Q04DX002 (ip), vehicle: other 92 % of control | dose: 400.0 mg/kg/injection, schedule: Q04DX002 (ip), vehicle: other 107 % of control

O=C(/C=C/c1ccccc1)NC(=S)Nc1ncccn1
inactive: dose: 100.0 mg/kg/injection, schedule: Q01DX009 (ip), vehicle: carboxymethylcellulose (CMC) 93 % of control and 96 % of control | dose: 100.0 mg/kg/injection, schedule: Q04DX002 (ip), vehicle: carboxymethylcellulose (CMC) 96 % of control and 104 % of control | dose: 100.0 mg/kg/injection, schedule: Q04DX003 (ip), vehicle: carboxymethylcellulose (CMC) 94 % of control | dose: 200.0 mg/kg/injection, schedule: Q01DX009 (ip), vehicle: carboxymethylcellulose (CMC) 92 % of control and 96 % of control | dose: 200.0 mg/kg/injection, schedule: Q04DX002 (ip), vehicle: carboxymethylcellulose (CMC) 96 % of control and 98 % of control | dose: 200.0 mg/kg/injection, schedule: Q04DX003 (ip), vehicle: carboxymethylcellulose (CMC) 91 % of control | dose: 400.0 mg/kg/injection, schedule: Q01DX009 (ip), vehicle: carboxymethylcellulose (CMC) 96 % of control and 104 % of control | dose: 400.0 mg/kg/injection, schedule: Q04DX002 (ip), vehicle: carboxymethylcellulose (CMC) 96 % of control and 91 % of control

N=C(N)SCCCCSC(=N)N
inactive: dose: 25.0 mg/kg/injection, schedule: Q01DX009 (ip), vehicle: saline 92 % of control | [7] 97 % of control | [1] 94 % of control and 106 % of control

Cc1ccc(S(=O)(=O)N(C)c2ccccc2C(=O)O)cc1
inactive: [8] 104 % of control | [9] 97 % of control | dose: 400.0 mg/kg/injection, schedule: Q04DX003 (ip), vehicle: Klucel (hydroxypropylcellulose) (HPC) 95 % of control

CCCCCCCCCCCCCCCCOc1ccc(Sc2ccc([N+](=O)[O-])cc2)cc1
inactive: [10] 87 % of control

O=C(Nc1ccc(C(=O)O)cc1)Nc1ccccc1F
inactive: dose: 50.0 mg/kg/injection, schedule: Q01DX009 (ip), vehicle: Klucel (hydroxypropylcellulose) (HPC) 93 % of control | dose: 100.0 mg/kg/injection, schedule: Q01DX009 (ip), vehicle: Klucel (hydroxypropylcellulose) (HPC) 104 % of control

Cc1cccc(C)c1C1CC1S(=O)(=O)c1ccccc1 (centres undefined)
inactive: dose: 100.0 mg/kg/injection, schedule: Q01DX001 (ip), vehicle: saline 101 % of control | [11] 100 % of control | dose: 200.0 mg/kg/injection, schedule: Q01DX001 (ip), vehicle: saline 98 % of control | [12] 94 % of control | dose: 400.0 mg/kg/injection, schedule: Q01DX001 (ip), vehicle: saline 111 % of control | [13] 104 % of control

COc1ccccc1/C=C\C(=O)C1COCN1 (centres undefined)
inactive: dose: 75.0 mg/kg/injection, schedule: Q04DX003 (ip), vehicle: saline 105 % of control | dose: 150.0 mg/kg/injection, schedule: Q04DX003 (ip), vehicle: saline 100 % of control | dose: 300.0 mg/kg/injection, schedule: Q04DX003 (ip), vehicle: saline 102 % of control

CC(C)=CCC(=O)Oc1ccccc1C(=O)O
inactive: [14] 92 % of control | [15] 102 % of control

CC(=O)C1=CC2(OC3CCC(O)(C(=O)CO)C(C)O3)C(=O)c3c(cc4cccc(O)c4c3O)CC2C(O)C1O (centres undefined)
inactive: dose: 3.12 mg/kg/injection, schedule: Q01DX001 (ip), vehicle: carboxymethylcellulose (CMC) 114 % of control | dose: 6.25 mg/kg/injection, schedule: Q01DX001 (ip), vehicle: carboxymethylcellulose (CMC) 100 % of control | dose: 12.5 mg/kg/injection, schedule: Q01DX001 (ip), vehicle: carboxymethylcellulose (CMC) 104 % of control | dose: 25.0 mg/kg/injection, schedule: Q01DX001 (ip), vehicle: carboxymethylcellulose (CMC) 106 % of control | dose: 50.0 mg/kg/injection, schedule: Q01DX001 (ip), vehicle: carboxymethylcellulose (CMC) 115 % of control | dose: 50.0 mg/kg/injection, schedule: Q01DX015 (ip), vehicle: carboxymethylcellulose (CMC) 102 % of control | dose: 100.0 mg/kg/injection, schedule: Q01DX001 (ip), vehicle: carboxymethylcellulose (CMC) 111 % of control | dose: 100.0 mg/kg/injection, schedule: Q01DX015 (ip), vehicle: carboxymethylcellulose (CMC) 102 % of control | dose: 200.0 mg/kg/injection, schedule: Q01DX001 (ip), vehicle: carboxymethylcellulose (CMC) 100 % of control | dose: 200.0 mg/kg/injection, schedule: Q01DX015 (ip), vehicle: carboxymethylcellulose (CMC) 93 % of control | dose: 400.0 mg/kg/injection, schedule: Q01DX001 (ip), vehicle: carboxymethylcellulose (CMC) 97 % of control | dose: 400.0 mg/kg/injection, schedule: Q01DX015 (ip), vehicle: carboxymethylcellulose (CMC) 93 % of control

c1ccc(-c2nc(-c3ccccc3)c(-c3ccccc3)nc2-c2ccccc2)cc1
inactive: dose: 100.0 mg/kg/injection, schedule: Q01DX001 (ip), vehicle: gum acacia 89 % of control | dose: 200.0 mg/kg/injection, schedule: Q01DX001 (ip), vehicle: gum acacia 91 % of control | dose: 400.0 mg/kg/injection, schedule: Q01DX001 (ip), vehicle: gum acacia 86 % of control

O=C(NCCCOc1ccc([N+](=O)[O-])cc1)OCc1ccccc1
inactive: [8] 109 % of control | [9] 107 % of control

CCCCCC1CCCC1
inactive: [2] 94 % of control | [4] 106 % of control | [6] 103 % of control

COC(=O)C1(C(=O)OC)CC1CCl (centres undefined)
inactive: [16] 96 % of control | [14] 101 % of control | dose: 200.0 mg/kg/injection, schedule: Q01DX009 (ip), vehicle: saline with Tween-80 105 % of control | [15] 101 % of control | dose: 400.0 mg/kg/injection, schedule: Q01DX009 (ip), vehicle: saline with Tween-80 93 % of control | [17] 95 % of control

c1c[nH]cn1
inactive: [7] 93 % of control | [1] 101 % of control and 90 % of control | [11] 97 % of control | [3] 96 % of control and 90 % of control | [12] 97 % of control | [5] 103 % of control | [13] 94 % of control

CC(Oc1ccccc1)C(=O)NC(=S)Nc1cccc2ccccc12 (centres undefined)
inactive: dose: 50.0 mg/kg/injection, schedule: Q01DX009 (ip), vehicle: saline with Tween-80 90 % of control and 91 % of control | [18] 108 % of control | [16] 100 % of control and 86 % of control | [19] 108 % of control and 114 % of control | [14] 108 % of control | [20] 95 % of control | [21] 93 % of control and 105 % of control | [15] 92 % of control | [22] 93 % of control | [23] 93 % of control and 88 % of control | [17] 92 % of control

Cc1nc2c(C(N)=O)nc(C)n2nc1C
inactive: dose: 50.0 mg/kg/injection, schedule: Q04DX002 (ip), vehicle: saline with Tween-80 93 % of control | [18] 103 % of control | [19] 105 % of control and 107 % of control | [20] 106 % of control | [21] 121 % of control | [22] 111 % of control | [23] 99 % of control | dose: 600.0 mg/kg/injection, schedule: Q01DX001 (ip), vehicle: saline with Tween-80 110 % of control

CCOC(=O)c1oc(C)nc1C
inactive: dose: 100.0 mg/kg/injection, schedule: Q01DX001 (ip), vehicle: Klucel (hydroxypropylcellulose) (HPC) 122 % of control | dose: 200.0 mg/kg/injection, schedule: Q01DX001 (ip), vehicle: Klucel (hydroxypropylcellulose) (HPC) 97 % of control | [10] 101 % of control

CCCCCC(Oc1ccc(Cl)cc1)C(=O)O (centres undefined)
inactive: [8] 104 % of control | [9] 98 % of control
